Like-named read-outs stand apart in the source and are kept apart here.
Tested on: panel of 55 breast cancer cell lines
Assay: Cell growth inhibition assay (Cell Titer Glo, 72 h, 9 doses; GI50, TGI, LC50)
Type: cell-based, human
[1] = Homo sapiens, AU565, cell line AU565, read-out: GI50 (converted)
[2] = Homo sapiens, BT-20, cell line BT20, read-out: GI50 (converted)
[3] = Homo sapiens, BT-474, cell line BT474, read-out: GI50 (converted)
[4] = Homo sapiens, CAMA-1, cell line CAMA1, read-out: GI50 (converted)
[5] = Homo sapiens, HCC38, cell line HCC38, read-out: GI50 (converted)
[6] = Homo sapiens, HCC1143, cell line HCC1143, read-out: GI50 (converted)
[7] = Homo sapiens, HCC1187, cell line HCC1187, read-out: GI50 (converted)
[8] = Homo sapiens, HCC1419, cell line HCC1419, read-out: GI50 (converted)
[9] = Homo sapiens, HCC1428, cell line HCC1428, read-out: GI50 (converted)
[10] = Homo sapiens, HCC1500, cell line HCC1500, read-out: GI50 (converted)
[11] = Homo sapiens, HCC1806, cell line HCC1806, read-out: GI50 (converted)
[12] = Homo sapiens, HCC1937, cell line HCC1937, read-out: GI50 (converted)
[13] = Homo sapiens, HCC1954, cell line HCC1954, read-out: GI50 (converted)
[14] = Homo sapiens, MDA-MB-415, cell line MDAMB415, read-out: GI50 (converted)
[15] = Homo sapiens, MDA-MB-436, cell line MDAMB436, read-out: GI50 (converted)
[16] = Homo sapiens, MDA-MB-453, cell line MDAMB453, read-out: GI50 (converted)
[17] = Homo sapiens, MDA-MB-468, cell line MDAMB468, read-out: GI50 (converted)
[18] = Homo sapiens, SK-BR-3, cell line SKBR3, read-out: GI50 (converted)
[19] = Homo sapiens, SUM52PE, cell line SUM52PE, read-out: GI50 (converted)
[20] = Homo sapiens, SUM149PT, cell line SUM149PT, read-out: GI50 (converted)
[21] = Homo sapiens, SUM-159-PT, cell line SUM159PT, read-out: GI50 (converted)
[22] = Homo sapiens, ZR-75-1, cell line ZR751, read-out: GI50 (converted)
[23] = Homo sapiens, ZR-75B, cell line ZR75B, read-out: GI50 (converted)
[24] = Homo sapiens, cell line 600MPE, read-out: GI50 (converted)
[25] = Homo sapiens, cell line HCC2185, read-out: GI50 (converted)
[26] = Homo sapiens, cell line LY2, read-out: GI50 (converted)
[27] = Homo sapiens, cell line MDAMB134V, read-out: GI50 (converted)
[28] = Homo sapiens, cell line SUM1315MO, read-out: GI50 (converted)

NS(=O)(=O)OC[C@@H]1C[C@@H](n2ccc3c(N[C@H]4CCc5ccccc54)ncnc32)C[C@@H]1O [MLN4924]
GI50 (Homo sapiens, AU565, cell line AU565, censored GI50 values, read-out: GI50 (converted)): 182 nM
GI50 [1]: 182 nM
GI50 (Homo sapiens, BT-20, cell line BT20, censored GI50 values, read-out: GI50 (converted)): 2750 nM
GI50 [2]: 2750 nM
GI50 (Homo sapiens, BT-474, cell line BT474, censored GI50 values, read-out: GI50 (converted)): 575 nM
GI50 [3]: 575 nM
GI50 (Homo sapiens, BT-483, cell line BT483, censored GI50 values, read-out: GI50 (converted)): 33100 nM
GI50 (Homo sapiens, BT-483, cell line BT483, read-out: GI50 (converted)): 33100 nM
GI50 (Homo sapiens, CAMA-1, cell line CAMA1, censored GI50 values, read-out: GI50 (converted)): 51.3 nM
GI50 [4]: 51.3 nM
GI50 (Homo sapiens, HCC38, cell line HCC38, censored GI50 values, read-out: GI50 (converted)): 27.5 nM
GI50 [5]: 27.5 nM
GI50 (Homo sapiens, HCC70, cell line HCC70, censored GI50 values, read-out: GI50 (converted)): 33100 nM
GI50 (Homo sapiens, HCC70, cell line HCC70, read-out: GI50 (converted)): 33100 nM
GI50 (Homo sapiens, HCC1143, cell line HCC1143, censored GI50 values, read-out: GI50 (converted)): 245 nM
GI50 [6]: 245 nM
GI50 (Homo sapiens, HCC1187, cell line HCC1187, censored GI50 values, read-out: GI50 (converted)): 501 nM
GI50 [7]: 501 nM
GI50 (Homo sapiens, HCC1419, cell line HCC1419, censored GI50 values, read-out: GI50 (converted)): 22.9 nM
GI50 [8]: 22.9 nM
GI50 (Homo sapiens, HCC1428, cell line HCC1428, censored GI50 values, read-out: GI50 (converted)): 117 nM
GI50 [9]: 117 nM
GI50 (Homo sapiens, HCC1500, cell line HCC1500, censored GI50 values, read-out: GI50 (converted)): 11.7 nM
GI50 [10]: 11.7 nM
GI50 (Homo sapiens, HCC1806, cell line HCC1806, censored GI50 values, read-out: GI50 (converted)): 21.4 nM
GI50 [11]: 21.4 nM
GI50 (Homo sapiens, HCC1937, cell line HCC1937, censored GI50 values, read-out: GI50 (converted)): 2630 nM
GI50 [12]: 2630 nM
GI50 (Homo sapiens, HCC1954, cell line HCC1954, censored GI50 values, read-out: GI50 (converted)): 4470 nM
GI50 [13]: 4470 nM
GI50 (Homo sapiens, MDA-MB-134-VI, cell line MDAMB134VI, censored GI50 values, read-out: GI50 (converted)): 52.5 nM
GI50 (Homo sapiens, MDA-MB-175-VII, cell line MDAMB175VII, censored GI50 values, read-out: GI50 (converted)): 427 nM
GI50 (Homo sapiens, MDA-MB-415, cell line MDAMB415, censored GI50 values, read-out: GI50 (converted)): 74.1 nM
GI50 [14]: 74.1 nM
GI50 (Homo sapiens, MDA-MB-436, cell line MDAMB436, censored GI50 values, read-out: GI50 (converted)): 269 nM
GI50 [15]: 269 nM
GI50 (Homo sapiens, MDA-MB-453, cell line MDAMB453, censored GI50 values, read-out: GI50 (converted)): 2190 nM
GI50 [16]: 2190 nM
GI50 (Homo sapiens, MDA-MB-468, cell line MDAMB468, censored GI50 values, read-out: GI50 (converted)): 204 nM
GI50 [17]: 204 nM
GI50 (Homo sapiens, SK-BR-3, cell line SKBR3, censored GI50 values, read-out: GI50 (converted)): 151 nM
GI50 [18]: 151 nM
GI50 (Homo sapiens, SUM52PE, cell line SUM52PE, censored GI50 values, read-out: GI50 (converted)): 398 nM
GI50 [19]: 398 nM
GI50 (Homo sapiens, SUM149PT, cell line SUM149PT, censored GI50 values, read-out: GI50 (converted)): 191 nM
GI50 [20]: 191 nM
GI50 (Homo sapiens, SUM1315MO2, cell line SUM1315MO2, censored GI50 values, read-out: GI50 (converted)): 33100 nM
GI50 (Homo sapiens, SUM-159-PT, cell line SUM159PT, censored GI50 values, read-out: GI50 (converted)): 589 nM
GI50 [21]: 589 nM
GI50 (Homo sapiens, T47D, cell line T47D, censored GI50 values, read-out: GI50 (converted)): 117 nM
GI50 (Homo sapiens, T47D, cell line T47D, read-out: GI50 (converted)): 117 nM
GI50 (Homo sapiens, UACC-812, cell line UACC812, censored GI50 values, read-out: GI50 (converted)): 1000 nM
GI50 (Homo sapiens, UACC-812, cell line UACC812, read-out: GI50 (converted)): 1000 nM
GI50 (Homo sapiens, ZR-75-1, cell line ZR751, censored GI50 values, read-out: GI50 (converted)): 33900 nM
GI50 [22]: 33900 nM
GI50 (Homo sapiens, ZR-75B, cell line ZR75B, censored GI50 values, read-out: GI50 (converted)): 145 nM
GI50 [23]: 145 nM
GI50 (Homo sapiens, cell line 600MPE, censored GI50 values, read-out: GI50 (converted)): 372 nM
GI50 [24]: 372 nM
GI50 (Homo sapiens, cell line HCC2185, censored GI50 values, read-out: GI50 (converted)): 372 nM
GI50 [25]: 372 nM
GI50 (Homo sapiens, cell line HCC3153, censored GI50 values, read-out: GI50 (converted)): 229 nM
GI50 (Homo sapiens, cell line HCC3153, read-out: GI50 (converted)): 229 nM
GI50 (Homo sapiens, cell line LY2, censored GI50 values, read-out: GI50 (converted)): 158 nM
GI50 [26]: 158 nM
GI50 [27]: 52.5 nM
GI50 (Homo sapiens, cell line MDAMB175V, read-out: GI50 (converted)): 427 nM
GI50 [28]: 33100 nM

CCc1c2c(nc3ccc(OC(=O)N4CCC(N5CCCCC5)CC4)cc13)-c1cc3c(c(=O)n1C2)COC(=O)[C@]3(O)CC [CPT-11]
GI50 (CAMA1 cell line, censored GI50 values, value is the negative log10 of mol/L): 4.84
GI50 (MDAMB157 cell line, censored GI50 values, value is the negative log10 of mol/L): 4.80
GI50 (cell line CAMA1, value is the negative log10 of mol/L): 4.84
GI50 (cell line MDAMB157, value is the negative log10 of mol/L): 4.80

CN(Cc1cnc2nc(N)nc(N)c2n1)c1ccc(C(=O)N[C@@H](CCC(=O)O)C(=O)O)cc1 [Methotrexate]
GI50 (Homo sapiens, 600MPE cell line, censored GI50 values, read-out: GI50 (converted)): 166000 nM
GI50 (Homo sapiens, AU565, AU565 cell line, censored GI50 values, read-out: GI50 (converted)): 166000 nM
GI50 [1]: 166000 nM
GI50 [2]: 331000 nM
GI50 [3]: 331000 nM
GI50 (Homo sapiens, BT-549, cell line BT549, read-out: GI50 (converted)): 331000 nM
GI50 (Homo sapiens, CAMA-1, CAMA1 cell line, censored GI50 values, read-out: GI50 (converted)): 79.4 nM
GI50 [4]: 79.4 nM
GI50 [5]: 331000 nM
GI50 (Homo sapiens, HCC202, cell line HCC202, read-out: GI50 (converted)): 20.4 nM
GI50 (Homo sapiens, HCC1143, HCC1143 cell line, censored GI50 values, read-out: GI50 (converted)): 24 nM
GI50 [6]: 24 nM
GI50 (Homo sapiens, HCC1187, HCC1187 cell line, censored GI50 values, read-out: GI50 (converted)): 166000 nM
GI50 [7]: 166000 nM
GI50 (Homo sapiens, HCC1395, cell line HCC1395, read-out: GI50 (converted)): 331000 nM
GI50 (Homo sapiens, HCC1419, HCC1419 cell line, censored GI50 values, read-out: GI50 (converted)): 166000 nM
GI50 [8]: 166000 nM
GI50 [9]: 331000 nM
GI50 (Homo sapiens, HCC1500, HCC1500 cell line, censored GI50 values, read-out: GI50 (converted)): 30.9 nM
GI50 [10]: 30.9 nM
GI50 (Homo sapiens, HCC1806, HCC1806 cell line, censored GI50 values, read-out: GI50 (converted)): 166000 nM
GI50 [11]: 166000 nM
GI50 [12]: 331000 nM
GI50 (Homo sapiens, HCC1954, HCC1954 cell line, censored GI50 values, read-out: GI50 (converted)): 15.5 nM
GI50 [13]: 15.5 nM
GI50 (Homo sapiens, MCF7, cell line MCF7, read-out: GI50 (converted)): 57.5 nM
GI50 (Homo sapiens, MDA-MB-157, cell line MDAMB157, read-out: GI50 (converted)): 166000 nM
GI50 (Homo sapiens, MDA-MB-231, cell line MDAMB231, read-out: GI50 (converted)): 331000 nM
GI50 (Homo sapiens, MDA-MB-361, cell line MDAMB361, read-out: GI50 (converted)): 158 nM
GI50 [14]: 331000 nM
GI50 [15]: 20 nM
GI50 [16]: 331000 nM
GI50 [17]: 32.4 nM
GI50 [18]: 692 nM
GI50 [19]: 331000 nM
GI50 [20]: 331000 nM
GI50 (Homo sapiens, SUM185PE, cell line SUM185PE, read-out: GI50 (converted)): 331000 nM
GI50 (Homo sapiens, SUM225CWN, cell line SUM225CWN, read-out: GI50 (converted)): 331000 nM
GI50 [21]: 331000 nM
GI50 [22]: 66.1 nM
GI50 [23]: 331000 nM
GI50 [24]: 166000 nM
GI50 [25]: 331000 nM
GI50 [26]: 33.9 nM
GI50 [27]: 331000 nM
GI50 [28]: 331000 nM

Source: patent US10770169B2, “Method of providing a treatment to a subject based on a dynamic pathway map” (THE REGENTS OF THE UNIVERSITY OF CALIFORNIA, priority 2010, dated 2020)
